Drawing on patent US11542288B2, “Antiviral compounds” (priority 2020, dated 2023), this text covers Ki and EC50 for eleven compounds.

Usually Ki stands for the dissociation constant of the complex between target and ligand, obtained from inhibition or displacement. Usually EC50 stands for the concentration giving half of the maximal effect.

Where two headings read alike, the source gives them in different places.

The target of one assay is T1, HIV-1 protease I84V (Human immunodeficiency virus type 1 group M subtype B, UniProt P12497, I572V/Q495K).
T1 construct: onto NL4-3 wild-type protease on a pET11a plasmid; made in house
The assay is described as follows: HIV enzyme inhibition assay (Ki), I84V variant. The settings on record: drug-resistant protease variant I84V. Format: biochemical.

The target of another assay is T2, HIV-1 protease I50V/A71V (Human immunodeficiency virus type 1 group M subtype B, UniProt P12497, A559V/I538V/Q495K).
T2 construct: onto NL4-3 wild-type protease on a pET11a plasmid; made in house
As to the kind of experiment: HIV enzyme inhibition assay (Ki), I50V/A71V variant. Format: biochemical. The settings on record: drug-resistant protease variant I50V/A71V.

Another assay addresses T3, HIV-1 protease 8 Mutant (Human immunodeficiency virus type 1 group M subtype B, UniProt P12497).
T3 construct: onto NL4-3 wild-type protease on a pET11a plasmid with codon optimization for protein expression in Escherichia coli; A Q7K mutation was included to prevent autoproteolysis
The assay is described as follows: HIV enzyme inhibition assay (Ki), 8 Mutant variant. Format: biochemical. The settings on record: drug-resistant protease variant 8 Mutant.

The next assay addresses T4, HIV-1 protease 10 Mutant (Human immunodeficiency virus type 1 group M subtype B, UniProt P12497).
T4 construct: onto NL4-3 wild-type protease on a pET11a plasmid with codon optimization for protein expression in Escherichia coli; A Q7K mutation was included to prevent autoproteolysis
The assay is described as follows: HIV enzyme inhibition assay (Ki), 10 Mutant variant. Format: biochemical. The settings on record: drug-resistant protease variant 10 Mutant.

A further assay deals with T5, HIV-1 protease 11 Mutant (Human immunodeficiency virus type 1 group M subtype B, UniProt P12497).
T5 construct: onto NL4-3 wild-type protease on a pET11a plasmid with codon optimization for protein expression in Escherichia coli; A Q7K mutation was included to prevent autoproteolysis
As to the kind of experiment: HIV enzyme inhibition assay (Ki), 11 Mutant variant. Format: biochemical. The following applies: drug-resistant protease variant 11 Mutant.

A further assay concerns wild-type HIV-1. As to the kind of experiment: HIV antiviral assay (293T / TZM-BL luciferase). The following applies: read-out: Antiviral WT EC50. Format: cell-based.
The target of the next assay is HIV-1 protease KY24 (Human immunodeficiency virus type 1, UniProt P12497). The settings on record: read-out: Ki KY24; drug-resistant protease variant KY24.
Assay [1] addresses T6, HTLV-1 protease (Human T-cell leukemia virus type I, UniProt Q82134, L40I). The following applies: read-out: Ki against HTLV-1 protease; 1 μM protein, MA/CA FRET substrate.
Assay [2] concerns the target T6, HTLV-1 protease. As to the kind of experiment: biochemical.

T6 sequence (Q82134 entry or part of it L40I): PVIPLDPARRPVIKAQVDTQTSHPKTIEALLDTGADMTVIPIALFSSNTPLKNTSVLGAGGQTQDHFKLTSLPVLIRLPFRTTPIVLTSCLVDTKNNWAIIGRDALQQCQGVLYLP

Turning to `CCOP(=O)(COc1ccc(C[C@H](NC(=O)O[C@H]2CO[C@H]3OCC[C@H]32)[C@H](O)CN(C[C@@H](C)CC)S(=O)(=O)c2ccc(OC)cc2)cc1)OCC` [Example 3, (3R,3aS,6aR)-hexahydrofuro [2,3-b]furan-3-yl ((2S,3R)-1-(4-((diethoxyphosphoryl)methoxy)phenyl)-3-hydroxy-4-((4-methoxy-N—((S)-2-methylbutyl)phenyl)sulfonamido)butan-2-yl)carbamate], the Ki on HIV-1 protease I84V was < 0.005 nM; at HIV-1 protease I50V/A71V, < 0.005 nM; at HIV-1 protease 8 Mutant it was 0.78 ± 0.07 nM; on HIV-1 protease 10 Mutant it was 3.7 ± 0.3 nM; on HIV-1 protease 11 Mutant, 10.5 ± 0.9 nM; on HIV-1 protease KY24 it was 0.16 ± 0.02 nM. In the assay with wild-type HIV-1, the EC50 is 7.8 nM.
With `CCOP(=O)(COc1ccc(C[C@H](NC(=O)O[C@H]2CO[C@H]3OCC[C@H]32)[C@H](O)CN(CC(CC)CC)S(=O)(=O)c2ccc3c(c2)OCO3)cc1)OCC` [Example 4, (3R,3aS,6aR)-hexahydrofuro[2,3-b]furan-3-yl ((2S,3R)-1-(4-((diethoxyphosphoryl)methoxy)phenyl)-4-(N-(2-ethylbutyl)benzo[d][1,3]dioxole-5-sulfonamido)-3-hydroxybutan-2-yl)carbamate], the Ki on HIV-1 protease I84V is < 0.005 nM; on HIV-1 protease I50V/A71V it was < 0.005 nM; on HIV-1 protease 8 Mutant it was 0.37 ± 0.03 nM; on HIV-1 protease 10 Mutant, 1.6 ± 0.06 nM; on HIV-1 protease 11 Mutant, 6.9 ± 0.5 nM; at HIV-1 protease KY24, 0.08 ± 0.03 nM. In addition, the EC50 in the assay on wild-type HIV-1 turned out to be 3.11 nM.
With `CCOP(=O)(COc1ccc(C[C@H](NC(=O)O[C@H]2CO[C@H]3OCC[C@H]32)[C@H](O)CN(C[C@@H](C)CC)S(=O)(=O)c2ccc(N)cc2)cc1)OCC` [Example 5, (3R,3aS,6aR)-hexahydrofuro[2,3-b]furan-3-yl ((2S,3R)-4-((4-amino-N—((S)-2-methylbutyl)phenyl)sulfonamido)-1-(4-((diethoxyphosphoryl)methoxy)phenyl)-3-hydroxybutan-2-yl)carbamate], the Ki on HIV-1 protease I84V is < 0.005 nM; on HIV-1 protease I50V/A71V it was < 0.005 nM; on HIV-1 protease 8 Mutant, 13.3 ± 3.5 nM; on HIV-1 protease 10 Mutant, 146 ± 10 nM; at HIV-1 protease 11 Mutant, 259 ± 17 nM; at HIV-1 protease KY24, 2.31 ± 0.09 nM. Further, the EC50 with wild-type HIV-1 was 22.9 nM.
As for `CCOP(=O)(COc1ccc(C[C@H](NC(=O)O[C@H]2CO[C@H]3OCC[C@H]32)[C@H](O)CN(C[C@@H](C)CC)S(=O)(=O)c2ccc(CO)cc2)cc1)OCC` [Example 6, (3R,3aS,6aR)-hexahydrofuro[2,3-b]furan-3-yl ((2S,3R)-1-(4-((diethoxyphosphoryl)methoxy)phenyl)-3-hydroxy-4-((4-(hydroxymethyl)-N—((S)-2-methylbutyl)phenyl)sulfonamido)butan-2-yl)carbamate], the Ki on HIV-1 protease I84V is < 0.005 nM; at HIV-1 protease I50V/A71V, < 0.005 nM; on HIV-1 protease 8 Mutant it was 4.98 ± 0.4 nM; on HIV-1 protease 10 Mutant, 52.9 ± 4.2 nM; at HIV-1 protease 11 Mutant, 103 ± 3 nM; at HIV-1 protease KY24 it was 1.89 ± 0.17 nM. In addition, in the assay with wild-type HIV-1, the EC50 was determined as 27.3 nM.
With `CCOP(=O)(COc1ccc(C[C@H](NC(=O)O[C@H]2CO[C@H]3OCC[C@H]32)[C@H](O)CN(CC(CC)CC)S(=O)(=O)c2ccc(OC)cc2)cc1)OCC` [Example 8, (3R,3aS,6aR)-hexahydrofuro[2,3-b]furan-3-yl ((2S,3R)-1-(4-((diethoxyphosphoryl)methoxy)phenyl)-4-((N-(2-ethylbutyl)-4-methoxyphenyl)sulfonamido)-3-hydroxybutan-2-yl)carbamate], the Ki was < 0.005 nM at HIV-1 protease I84V; < 0.005 nM at HIV-1 protease I50V/A71V; 0.77 ± 0.06 nM on HIV-1 protease 8 Mutant; 1.26 ± 0.08 nM at HIV-1 protease 10 Mutant; 2.2 ± 0.2 nM on HIV-1 protease 11 Mutant; 0.16 ± 0.04 nM at HIV-1 protease KY24. For the same compound, the EC50 with wild-type HIV-1 was found to be 5.15 nM.
Consider `CCOP(=O)(COc1ccc(C[C@H](NC(=O)O[C@H]2CO[C@H]3OCC[C@H]32)[C@H](O)CN(CC(C)C)S(=O)(=O)c2ccc3c(c2)OCO3)cc1)OCC` [Example 9, (3R,3aS,6aR)-hexahydrofuro[2,3-b]furan-3-yl ((2S,3R)-1-(4-((diethoxyphosphoryl)methoxy)phenyl)-3-hydroxy-4-(N-isobutylbenzo[d][1,3]dioxole-5-sulfonamido)butan-2-yl)carbamate], for which the Ki at HIV-1 protease I84V was < 0.005 nM; on HIV-1 protease I50V/A71V, < 0.005 nM; on HIV-1 protease 8 Mutant, 2.2 ± 0.5 nM; on HIV-1 protease 10 Mutant, 4.5 ± 0.8 nM; on HIV-1 protease 11 Mutant it was 63.5 ± 15.2 nM; at HIV-1 protease KY24, 0.36 ± 0.05 nM. The EC50 in the assay with wild-type HIV-1 is 5.67 nM.
In the case of `CCOP(=O)(COc1ccc(C[C@H](NC(=O)O[C@H]2CO[C@H]3OCC[C@H]32)[C@H](O)CN(CC(C)C)S(=O)(=O)c2ccc3ncsc3c2)cc1)OCC` [Example 10, (3R,3aS,6aR)-hexahydrofuro[2,3-b]furan-3-yl ((2S,3R)-1-(4-((diethoxyphosphoryl)methoxy)phenyl)-3-hydroxy-4-(N-isobutylbenzo [d]thiazole-6-sulfonamido)butan-2-yl)carbamate], the Ki was < 0.005 nM on HIV-1 protease I84V; < 0.005 nM at HIV-1 protease I50V/A71V; 0.93 ± 0.2 nM at HIV-1 protease 8 Mutant; 1.9 ± 0.3 nM at HIV-1 protease 10 Mutant; 15 ± 3.5 nM on HIV-1 protease 11 Mutant; 0.23 ± 0.02 nM on HIV-1 protease KY24. The EC50 in the assay with wild-type HIV-1 was 10.4 nM.
Consider `CCOP(=O)(COc1ccc(C[C@H](NC(=O)O[C@H]2CO[C@H]3OCC[C@H]32)[C@H](O)CN(C[C@@H](C)CC)S(=O)(=O)c2ccc3ncsc3c2)cc1)OCC` [Example 11, (3R,3aS,6aR)-hexahydrofuro[2,3-b]furan-3-yl ((2S,3R)-1-(4-((diethoxyphosphoryl)methoxy)phenyl)-3-hydroxy-4-(N—((S)-2-methylbutyl)benzo[d]thiazole-6-sulfonamido)butan-2-yl)carbamate], for which the Ki on HIV-1 protease I84V is < 0.005 nM; on HIV-1 protease I50V/A71V, < 0.005 nM; on HIV-1 protease 8 Mutant it was 1.8 ± 0.5 nM; on HIV-1 protease 10 Mutant, 1.2 ± 0.4 nM; at HIV-1 protease 11 Mutant, 9.03 ± 4.21 nM; at HIV-1 protease KY24, 0.09 ± 0.01 nM. For the same compound, the EC50 in the assay with wild-type HIV-1 turned out to be 9.93 nM.
Regarding `CCOP(=O)(COc1ccc(C[C@H](NC(=O)O[C@H]2CO[C@H]3OCC[C@H]32)[C@H](O)CN(CC(CC)CC)S(=O)(=O)c2ccc3ncsc3c2)cc1)OCC` [Example 12, (3R,3aS,6aR)-hexahydrofuro[2,3-b]furan-3-yl ((2S,3R)-1-(4-((diethoxyphosphoryl)methoxy)phenyl)-4-(N-(2-ethylbutyl)benzo[d]thiazole-6-sulfonamido)-3-hydroxybutan-2-yl)carbamate], the Ki was < 0.005 nM at HIV-1 protease I84V, < 0.005 nM at HIV-1 protease I50V/A71V, 0.25 ± 0.08 nM on HIV-1 protease 8 Mutant and 0.24 ± 0.09 nM at HIV-1 protease 10 Mutant. Besides, in the assay with wild-type HIV-1, the 50% effective concentration (EC50) was determined as 10.7 nM.
`CCOP(=O)(COc1ccc(C[C@H](NC(=O)O[C@H]2CO[C@H]3OCC[C@H]32)[C@H](O)CN(CC(CC)CC)S(=O)(=O)c2ccc(CO)cc2)cc1)OCC` [Example 13, (3R,3aS,6aR)-hexahydrofuro[2,3-b]furan-3-yl ((2S,3R)-1-(4-((diethoxyphosphoryl)methoxy)phenyl)-4-((N-(2-ethylbutyl)-4-(hydroxymethyl)phenyl)sulfonamido)-3-hydroxybutan-2-yl)carbamate]: the Ki at HIV-1 protease I84V is < 0.005 nM; on HIV-1 protease I50V/A71V, < 0.005 nM; at HIV-1 protease 8 Mutant, 2.2 ± 0.4 nM; at HIV-1 protease 10 Mutant it was 32.1 ± 4.3 nM; on HIV-1 protease 11 Mutant, 81.2 ± 10.8 nM; at HIV-1 protease KY24, 0.6 ± 0.1 nM. Moreover, the EC50 with wild-type HIV-1 worked out at 17 nM.
Consider `CC(C)(C)NC(=O)[C@@H]1CN(Cc2cccnc2)CCN1C[C@@H](O)C[C@@H](Cc1ccccc1)C(=O)N[C@H]1c2ccccc2C[C@H]1O` [IDV, indinavir, reference compound], for which the Ki turned out to be 62700 nM on HTLV-1 protease [1] and 60000 nM at HTLV-1 protease [2].
